Experimental findings from ChEMBL document CHEMBL4428084, “Discovery and Optimization of N-(4-(3-Aminophenyl)thiazol-2-yl)acetamide as a Novel Scaffold Active against Sensitive and Resistant Cancer Cells” (J Med Chem, 2016) are described below.

Experiment [1] is described as follows: Cytotoxicity against vemurafenib-resistant human A375 RIV cells assessed as cell viability at 10 uM after 48 hrs by trypan blue exclusion assay relative to control. Format: functional. The settings on record: A-375, 48 h, read-out: Activity.
For experiment [2], the system named is K562. As to the kind of experiment: Cytotoxicity against imatinib-resistant human K562 cells assessed as cell viability at 10 uM after 48 hrs by trypan blue exclusion assay relative to control. Format: functional. The following applies: K562, 48 h, read-out: Activity.
Experiment [3] relates to A-375. As to the kind of experiment: Cytotoxicity against vemurafenib-sensitive human A375 cells assessed as cell viability at 10 uM after 48 hrs by trypan blue exclusion assay relative to control. The format is functional. The settings on record: A-375, 48 h, read-out: Activity.
Experiment [4] concerns K562. As to the kind of experiment: Cytotoxicity against imatinib-sensitive human K562 cells assessed as cell viability at 10 uM after 48 hrs by trypan blue exclusion assay relative to control. The following applies: K562, 48 h, read-out: Activity. Format: functional.
The subject of experiment [5] is MIA PaCa-2. As to the kind of experiment: Cytotoxicity against gemcitabine-resistant human MIAPaCa2 cells assessed as cell viability at 10 uM after 48 hrs by trypan blue exclusion assay relative to control. The settings on record: MIA PaCa-2, 48 h, read-out: Activity. Format: functional.
A short description of experiment [6]: Cytotoxicity against vemurafenib-resistant human A375 R5C3 cells assessed as cell viability at 10 uM after 48 hrs by trypan blue exclusion assay relative to control. Format: functional. The following applies: A-375, 48 h, read-out: Activity.
Experiment [7] has as its system BXPC-3. As to the kind of experiment: Cytotoxicity against gemcitabine-sensitive human BxPC3 cells assessed as cell viability at 10 uM after 48 hrs by trypan blue exclusion assay relative to control. Format: functional. The settings on record: BXPC-3, 48 h, read-out: Activity.
In experiment [8] the test system is BXPC-3. As to the kind of experiment: Cytotoxicity against gemcitabine-sensitive human BxPC3 cells assessed as cell viability at 0.1 uM after 48 hrs by trypan blue exclusion assay relative to control. The settings on record: BXPC-3, 48 h, read-out: Activity. Format: functional.
Experiment [9] has as its system MIA PaCa-2. As to the kind of experiment: Cytotoxicity against gemcitabine-resistant human MIAPaCa2 cells assessed as cell viability at 0.1 uM after 48 hrs by trypan blue exclusion assay relative to control. The format is functional. The following applies: MIA PaCa-2, 48 h, read-out: Activity.
Experiment [10] deals with A-375. As to the kind of experiment: Cytotoxicity against vemurafenib-sensitive human A375 cells assessed as cell viability at 5 uM after 48 hrs by trypan blue exclusion assay relative to control. Format: functional. The following applies: A-375, 48 h, read-out: Activity.
Experiment [11] is described as follows: Cytotoxicity against vemurafenib-resistant human A375 RIV cells assessed as cell viability at 5 uM after 48 hrs by trypan blue exclusion assay relative to control. The format is functional. The settings on record: A-375, 48 h, read-out: Activity.
The nature of experiment [12]: Cytotoxicity against vemurafenib-resistant human A375 R5C3 cells assessed as cell viability at 5 uM after 48 hrs by trypan blue exclusion assay relative to control. The following applies: A-375, 48 h, read-out: Activity. Format: functional.
Experiment [13] can be described thus: Cytotoxicity against vemurafenib-resistant human A375 RIV cells assessed as cell viability at 1 uM after 48 hrs by trypan blue exclusion assay relative to control. The format is functional. The following applies: A-375, 48 h, read-out: Activity.
For experiment [14], the system named is A-375. As to the kind of experiment: Induction of apoptosis in human A375 cells assessed as cells with active caspase-3 at 1 uM after 12 hrs by flow cytometry (reference value: 4.16%). Format: functional.
Experiment [15] has as its system K562. As to the kind of experiment: Cytotoxicity against imatinib-sensitive human K562 cells assessed as cell viability at 1 uM after 48 hrs by trypan blue exclusion assay relative to control. The following applies: K562, 48 h, read-out: Activity.
The subject of experiment [16] is K562. As to the kind of experiment: Cytotoxicity against imatinib-resistant human K562 cells assessed as cell viability at 1 uM after 48 hrs by trypan blue exclusion assay relative to control. The settings on record: K562, 48 h, read-out: Activity.

Where only a bound is given, the exact number is not on record here.

With `CC(=O)Nc1nc(-c2cccc(NC(=O)c3ccc4ccccc4c3)c2)cs1`, the viability at 10 µM in [1] was 30%; with K562 [2], 89.7%; in the experiment with A-375 [3] it was 18.3%; in the experiment with K562 [4], 53.9%; in the experiment on MIA PaCa-2 [5], 7%; in [6], 63.8%. For the same molecule, the viability at 10 µM with BXPC-3 [7] was determined as 1.5%.

In the case of `CC(=O)Nc1nc(-c2cccc(NS(=O)(=O)c3ccccc3)c2)cs1`, the viability at 10 µM in the experiment with A-375 [3] was 72.2%.

Consider `CC(=O)Nc1nc(-c2cccc(N)c2)cs1`, for which the viability at 10 µM with A-375 [3] turned out to be 38.4%.

As for `Nc1ccn([C@@H]2O[C@H](CO)[C@@H](O)C2(F)F)c(=O)n1` [GEMCITABINE], the values for the viability at 0.1 µM with BXPC-3 [8] and with MIA PaCa-2 [9] were 2% and 86.5%, respectively.

With `CCCCC#Cc1ccc(S(=O)(=O)Nc2cccc(-c3csc(NC(C)=O)n3)c2)cc1`, the viability at 10 µM is 10% in experiment [1]; 35.1% in the experiment on K562 [2]; under 1% with A-375 [3]; 26.9% in the experiment on K562 [4]; under 1% in the experiment with MIA PaCa-2 [5]; 7.8% in experiment [6]. Further, the viability at 10 µM with BXPC-3 [7] is under 1%.

Take `CC(=O)Nc1nc(-c2cccc(NS(=O)(=O)c3cc4ccccc4s3)c2)cs1`: in the experiment with A-375 [3], the viability at 10 µM is 29.2%.

With `CC(=O)Nc1nc(-c2cccc(NS(=O)(=O)c3cccc4ccccc34)c2)cs1`, the viability at 10 µM with A-375 [3] turned out to be 20.4%.

As to `CC(=O)Nc1nc(-c2cccc(NS(=O)(=O)c3cccc(C)c3)c2)cs1`, in the experiment on A-375 [3], the viability at 10 µM was 51.2%.

With `CC(=O)Nc1nc(-c2cccc(NS(=O)(=O)c3cn(C)cn3)c2)cs1`, the viability at 10 µM with A-375 [3] was found to be 36.8%.

As for `CCCS(=O)(=O)Nc1ccc(F)c(C(=O)c2c[nH]c3ncc(-c4ccc(Cl)cc4)cc23)c1F` [VEMURAFENIB], the viability at 5 µM in the experiment on A-375 [10] is 44%; in [11], 76.7%; in [12], 101%.

Take `CC(=O)Nc1nc(-c2cccc(NS(=O)(=O)c3ccc4c(c3)OCCO4)c2)cs1`: the viability at 10 µM in the experiment with A-375 [3] came out at 29.6%.

In the case of `CC(=O)Nc1nc(-c2cccc(NS(=O)(=O)c3ccc(-c4ccccc4)cc3)c2)cs1`, the viability at 10 µM in the experiment on A-375 [3] came to 33.9%.

`CCCCc1ccc(S(=O)(=O)Nc2cccc(-c3csc(NC(C)=O)n3)c2)cc1`: the viability at 10 µM in experiment [1] was 26.7%; with K562 [2], 60.9%; in the experiment on A-375 [3] it was 2.2%; with K562 [4], 51.6%; in the experiment with MIA PaCa-2 [5], under 1%; in [6], 9.9%. Further, the viability at 10 µM with BXPC-3 [7] was 4.3%.

For `CC(=O)Nc1nc(-c2cccc(NS(=O)(=O)c3ccc(I)cc3)c2)cs1`, the viability at 10 µM in experiment [1] is 10%; with K562 [2] it was 27%; in the experiment on A-375 [3] it was under 1%; with K562 [4], 15%; in the experiment on MIA PaCa-2 [5], 15.8%; in experiment [6], 8.4%. For the same molecule, the viability at 10 µM in the experiment with BXPC-3 [7] is under 1%.

Consider `CCCCCCCC(=O)Nc1cccc(-c2csc(NC(C)=O)n2)c1`, for which the viability at 10 µM in the experiment with A-375 [3] turned out to be 40%.

In the case of `CC(=O)Nc1nc(-c2cccc(NS(=O)(=O)c3ccc(C)s3)c2)cs1`, the viability at 10 µM in the experiment with A-375 [3] amounted to 37.5%.

Take `CC(=O)Nc1nc(-c2cccc(NS(=O)(=O)c3ccc(C(C)(C)C)cc3)c2)cs1`: the viability at 10 µM is under 1% in experiment [1]; 35.1% in the experiment on K562 [2]; 1.5% in the experiment with A-375 [3]; 19.4% in the experiment with K562 [4]; under 1% with MIA PaCa-2 [5]; 51.1% in experiment [6]. Further, in the experiment on BXPC-3 [7], the viability at 10 µM was under 1%. In addition, the viability at 1 µM in [13] amounted to 39.4%.

For the molecule `CC(=O)Nc1nc(-c2cccc(NS(=O)(=O)c3c[nH]cn3)c2)cs1`, the viability at 10 µM in the experiment on A-375 [3] was 45.7%.

Take `CC(=O)Nc1nc(-c2cccc(NS(=O)(=O)c3ccc4c(c3)CCC4)c2)cs1`: the viability at 10 µM in the experiment on A-375 [3] is 26.3%.

On to `CC(=O)Nc1nc(-c2cccc(NC(=O)c3ccco3)c2)cs1`, for which the viability at 10 µM in the experiment on A-375 [3] amounted to 29.2%.

On to `CC(=O)Nc1nc(-c2cccc(NS(=O)(=O)c3ccc4ccccc4c3)c2)cs1`, for which the viability at 10 µM in [1] was 33.3%; with K562 [2], 25.6%; with A-375 [3], 3.3%; in the experiment on K562 [4], 31%; in the experiment on MIA PaCa-2 [5], 7%; in experiment [6], 49.6%. For the same molecule, the viability at 10 µM in the experiment with BXPC-3 [7] was found to be 0.6%.

Consider `CN[C@@H]1C[C@H]2O[C@@](C)([C@@H]1OC)n1c3ccccc3c3c4c(c5c6ccccc6n2c5c31)C(=O)NC4` [STAUROSPORINE], for which the Activity in the experiment on A-375 [14] was 46.95%.

Consider `CC(=O)Nc1nc(-c2cccc(NS(=O)(=O)c3ccc4oc(=O)ccc4c3)c2)cs1`, for which the viability at 10 µM in the experiment with A-375 [3] came out at 65.5%.

On to `CC(=O)Nc1nc(-c2cccc(NS(=O)(=O)c3cccc4cccnc34)c2)cs1`, for which the viability at 10 µM in the experiment on A-375 [3] came to 59.5%.

In the case of `CCCCCc1ccc(S(=O)(=O)Nc2cccc(-c3csc(NC(C)=O)n3)c2)cc1`, the viability at 10 µM in experiment [1] is under 1%; in the experiment with K562 [2] it was 72.7%; in the experiment with A-375 [3], 2.8%; in the experiment with K562 [4], 51%; in the experiment on MIA PaCa-2 [5], under 1%; in experiment [6] it was 15.6%. Moreover, the viability at 10 µM in the experiment on BXPC-3 [7] was under 1%. Besides, the viability at 1 µM in experiment [13] is 27.7%.

For `CC(=O)Nc1nc(-c2cccc(NS(=O)(=O)c3ccc(C)cc3)c2)cs1`, the viability at 10 µM amounted to 53.3% in [1]; 38.5% in the experiment on K562 [2]; 19.8% with A-375 [3]; 15.3% in the experiment with K562 [4]; 49.1% in the experiment with MIA PaCa-2 [5]; 75.9% in [6]. Further, the viability at 10 µM in the experiment with BXPC-3 [7] worked out at 21.6%.

`CC(=O)Nc1nc(-c2cccc(NS(=O)(=O)c3ccc(-c4ccc(C)cc4)cc3)c2)cs1`: in the experiment with A-375 [3], the viability at 10 µM came to 26.3%.

Consider `CCc1ccc(S(=O)(=O)Nc2cccc(-c3csc(NC(C)=O)n3)c2)cc1`, for which the viability at 10 µM in [1] worked out at 26.7%; with K562 [2] it was 27%; in the experiment on A-375 [3] it was 7.5%; in the experiment with K562 [4], 12.8%; in the experiment on MIA PaCa-2 [5], 40.7%; in experiment [6], 80.1%. The viability at 10 µM with BXPC-3 [7] stood at 21%.

With `CC(=O)Nc1nc(-c2cccc([N+](=O)[O-])c2)cs1`, in the experiment on A-375 [3], the viability at 10 µM was 47.3%.

Regarding `CC(=O)Nc1nc(-c2cccc(NS(=O)(=O)c3cccc4c3ccn4C)c2)cs1`, the viability at 10 µM with A-375 [3] is 60.7%.

For `CC(=O)Nc1nc(-c2cccc(NS(=O)(=O)c3cccs3)c2)cs1`, the viability at 10 µM in the experiment with A-375 [3] was determined as 29.6%.

In the case of `CC(=O)Nc1nc(-c2cccc(NS(=O)(=O)c3sc(C)nc3C)c2)cs1`, in the experiment with A-375 [3], the viability at 10 µM came to 29.2%.

As to `Cc1ccc(NC(=O)c2ccc(CN3CCN(C)CC3)cc2)cc1Nc1nccc(-c2cccnc2)n1` [IMATINIB], the viability at 1 µM in the experiment on K562 [15] was determined as 9.7%; in the experiment with K562 [16] it was 85.5%.

As to `CC(=O)Nc1nc(-c2cccc(NS(=O)(=O)c3ccc4c(ccn4C)c3)c2)cs1`, in the experiment with A-375 [3], the viability at 10 µM came out at 46.5%.
